Experimental data reported in US11766411B2, “Use of cannabinoids in the treatment of epilepsy” (GW Research Limited, priority 2014, dated 2023).

Test system: patients with FIRES
Assay: Expanded access program, febrile infection related epilepsy syndrome (FIRES) patients
Type: in vivo, human
Set-up: Change from Baseline: unit not given here
Details: for % Change from Baseline / Change from Baseline / Frequency (per month) / Responder (>=50% Reduction) / Responder (>=70% Reduction) / Responder (>=90% Reduction) / Seizure Free: total seizures
Protocol: Three patients with FIRES, with an age range of from 4 to 15 years, were treated with CBD under an expanded access program as described previously in Example 1.
Safety laboratory studies, physical/neurological exams, 24 hour video/EEG and seizure types and frequencies were assessed at baseline and one month after starting CBD.
A highly purified extract of CBD as an oral solution in sesame oil was used at a concentration of 25 mg/mL.
Treatment was initiated at a dose of 10 mg/kg/day given in two divided doses, increasing by 5 mg/kg/day every 3 days.
Following seizure improvement an average of 2 AEDs were weaned.

[1] = FIRES patients (n = 3), after 12 weeks of treatment

SMILES: C=C(C)[C@@H]1CCC(C)=C[C@H]1c1c(O)cc(CCCCC)cc1O [CBD, Cannabidiol]
- functional recovery after a reduction in seizures (FIRES patients): able to walk and verbalise once more
- Responder rate (>50% reduction) [%] [1]: 67%
- Responder rate (>50% reduction), number of patients [1]: 2
- Responder rate (>70% reduction) [%] [1]: 67%
- Responder rate (>70% reduction), number of patients [1]: 2
- Responder rate (>90% reduction) [%] [1]: 67%
- Responder rate (>90% reduction), number of patients [1]: 2
- Seizure free [%] [1]: 33%
- Seizure free, number of patients [1]: 1
- seizure freedom over the treatment period (Patient 1, 24 week period): seizure free after starting treatment for almost all of the treatment period
- reduction in seizures (Patient 2, after 4 weeks): 50%
- reduction in the number of seizures (Patient 3, week 24): greater than 90%
- improvement in clinical and electrographic seizure burden (in two of the three children with refractory seizures or status epilepticus due to FIRES): greater than 90%
- Follow up laboratory tests (safety studies, concomitant AED levels) (three FIRES patients): no changes in safety studies or concomitant AED levels
- tolerability (three FIRES patients): very well tolerated
- treatment related adverse effects (three FIRES patients): No treatment related adverse effects
- % Change from Baseline (Patient 1, Wk 4): −100.0%
- Change from Baseline (Patient 1, Wk 4): −4.0
- Frequency (per month) (Patient 1, Wk 4): 0.0 per month
- Responder (>=50% Reduction) (Patient 1, Wk 4): Yes
- Responder (>=70% Reduction) (Patient 1, Wk 4): Yes
- Responder (>=90% Reduction) (Patient 1, Wk 4): Yes
- Seizure Free (Patient 1, Wk 4): Yes
- % Change from Baseline (Patient 1, Wk 8): −75.0%
- Change from Baseline (Patient 1, Wk 8): −3.0
- Frequency (per month) (Patient 1, Wk 8): 1.0 per month
- Responder (>=50% Reduction) (Patient 1, Wk 8): Yes
- Responder (>=70% Reduction) (Patient 1, Wk 8): Yes
- Responder (>=90% Reduction) (Patient 1, Wk 8): No
- Seizure Free (Patient 1, Wk 8): No
- % Change from Baseline (Patient 1, Wk 12): −100.0%
- Change from Baseline (Patient 1, Wk 12): −4.0
- Frequency (per month) (Patient 1, Wk 12): 0.0 per month
- Responder (>=50% Reduction) (Patient 1, Wk 12): Yes
- Responder (>=70% Reduction) (Patient 1, Wk 12): Yes
- Responder (>=90% Reduction) (Patient 1, Wk 12): Yes
- Seizure Free (Patient 1, Wk 12): Yes
- % Change from Baseline (Patient 1, Wk 16): −100.0%
- Change from Baseline (Patient 1, Wk 16): −4.0
- Frequency (per month) (Patient 1, Wk 16): 0.0 per month
- Responder (>=50% Reduction) (Patient 1, Wk 16): Yes
- Responder (>=70% Reduction) (Patient 1, Wk 16): Yes
- Responder (>=90% Reduction) (Patient 1, Wk 16): Yes
- Seizure Free (Patient 1, Wk 16): Yes
- % Change from Baseline (Patient 1, Wk 24): −92.0%
- Change from Baseline (Patient 1, Wk 24): −3.7
- Frequency (per month) (Patient 1, Wk 24): 0.3 per month
- Responder (>=50% Reduction) (Patient 1, Wk 24): Yes
- Responder (>=70% Reduction) (Patient 1, Wk 24): Yes
- Responder (>=90% Reduction) (Patient 1, Wk 24): Yes
- Seizure Free (Patient 1, Wk 24): No
- % Change from Baseline (Patient 2, Wk 2): −88.6%
- Change from Baseline (Patient 2, Wk 2): −6.2
- Frequency (per month) (Patient 2, Wk 2): 0.8 per month
- Responder (>=50% Reduction) (Patient 2, Wk 2): Yes
- Responder (>=70% Reduction) (Patient 2, Wk 2): Yes
- Responder (>=90% Reduction) (Patient 2, Wk 2): No
- Seizure Free (Patient 2, Wk 2): No
- % Change from Baseline (Patient 2, Wk 4): −57.1%
- Change from Baseline (Patient 2, Wk 4): −4.0
- Frequency (per month) (Patient 2, Wk 4): 3.0 per month
- Responder (>=50% Reduction) (Patient 2, Wk 4): Yes
- Responder (>=70% Reduction) (Patient 2, Wk 4): No
- Responder (>=90% Reduction) (Patient 2, Wk 4): No
- Seizure Free (Patient 2, Wk 4): No
- % Change from Baseline (Patient 2, Wk 8): 42.9%
- Change from Baseline (Patient 2, Wk 8): 3.0
- Frequency (per month) (Patient 2, Wk 8): 10.0 per month
- Responder (>=50% Reduction) (Patient 2, Wk 8): No
- Responder (>=70% Reduction) (Patient 2, Wk 8): No
- Responder (>=90% Reduction) (Patient 2, Wk 8): No
- Seizure Free (Patient 2, Wk 8): No
- % Change from Baseline (Patient 2, Wk 12): 14.3%
- Change from Baseline (Patient 2, Wk 12): 1.0
- Frequency (per month) (Patient 2, Wk 12): 8.0 per month
- Responder (>=50% Reduction) (Patient 2, Wk 12): No
- Responder (>=70% Reduction) (Patient 2, Wk 12): No
- Responder (>=90% Reduction) (Patient 2, Wk 12): No
- Seizure Free (Patient 2, Wk 12): No
- % Change from Baseline (Patient 2, Wk 16): −42.9%
- Change from Baseline (Patient 2, Wk 16): −3.0
- Frequency (per month) (Patient 2, Wk 16): 4.0 per month
- Responder (>=50% Reduction) (Patient 2, Wk 16): No
- Responder (>=70% Reduction) (Patient 2, Wk 16): No
- Responder (>=90% Reduction) (Patient 2, Wk 16): No
- Seizure Free (Patient 2, Wk 16): No
- % Change from Baseline (Patient 3, Wk 4): −99.2%
- Change from Baseline (Patient 3, Wk 4): −5552.8
- Frequency (per month) (Patient 3, Wk 4): 47.2 per month
- Responder (>=50% Reduction) (Patient 3, Wk 4): Yes
- Responder (>=70% Reduction) (Patient 3, Wk 4): Yes
- Responder (>=90% Reduction) (Patient 3, Wk 4): Yes
- Seizure Free (Patient 3, Wk 4): No
- % Change from Baseline (Patient 3, Wk 8): −99.8%
- Change from Baseline (Patient 3, Wk 8): −5590.8
- Frequency (per month) (Patient 3, Wk 8): 9.2 per month
- Responder (>=50% Reduction) (Patient 3, Wk 8): Yes
- Responder (>=70% Reduction) (Patient 3, Wk 8): Yes
- Responder (>=90% Reduction) (Patient 3, Wk 8): Yes
- Seizure Free (Patient 3, Wk 8): No
- % Change from Baseline (Patient 3, Wk 12): −97.5%
- Change from Baseline (Patient 3, Wk 12): −5458.4
- Frequency (per month) (Patient 3, Wk 12): 141.6 per month
- Responder (>=50% Reduction) (Patient 3, Wk 12): Yes
- Responder (>=70% Reduction) (Patient 3, Wk 12): Yes
- Responder (>=90% Reduction) (Patient 3, Wk 12): Yes
- Seizure Free (Patient 3, Wk 12): No
- % Change from Baseline (Patient 3, Wk 24): −90.3%
- Change from Baseline (Patient 3, Wk 24): −5058.0
- Frequency (per month) (Patient 3, Wk 24): 542.0 per month
- Responder (>=50% Reduction) (Patient 3, Wk 24): Yes
- Responder (>=70% Reduction) (Patient 3, Wk 24): Yes
- Responder (>=90% Reduction) (Patient 3, Wk 24): Yes
- Seizure Free (Patient 3, Wk 24): No
